Test results: patent publication US5914319A, “Antithrombotic agents” (Eli Lilly and Company, priority 1995, dated 1999)
Structures can show the parent of a compound that is named as a salt.

Tests used:
Assay type in all cases: biochemical
Human plasma [1] = test: Human plasma anticoagulation, thrombin time (TT); details: concentration required to double the thrombin time, linear extrapolation
Description: (§1) Dog plasma and rat plasma is obtained from conscious mixed-breed hounds (either sex, Hazelton-LRE, Kalamazoo, Mich., U.S.A.) or from anesthetized male Sprague-Dawley rats (Harlan Sprague-Dawley, Inc., Indianapolis, Ind., U.S.A.) by venipuncture into 3.8 percent citrate. Fibrinogen is prepared from in-date ACD human blood as the fraction I-2 according to previous procedures and specifications. […] Human fibrinogen is also purchased as 98 percent pure/plasmin free from American Diagnostica, Greenwich, Conn. Coagulation reagents ACTIN, Thromboplastin, and Human plasma are from Baxter Healthcare Corp., Dade Division, Miami, Fla. Bovine thrombin from Parke-Davis ([…], Mich.) is used for coagulation assays in plasma.
(§2) Coagulation assay procedures are as previously described. […] A CoAScreener coagulation instrument (American LABor, Inc.) is used for all coagulation assay measurements. The prothrombin time (PT) is measured by adding 0.05 mL saline and 0.05 mL Thromboplastin-C reagent to 0.05 mL test plasma. The activated partial thromboplastin time (APTT) is measured by incubation of 0.05 mL test plasma with 0.05 mL Actin reagent for 120 seconds followed by 0.05 mL CaCl2 (0.02M). The thrombin time (TT) is measured by adding 0.05 mL saline and 0.05 mL thrombin (10 NIH units/mL) to 0.05 mL test plasma. The compounds of Formula I are added to human or animal plasma over a wide range of concentrations to determine prolongation effects on the APTT, PT, and TT assays. Linear extrapolations are performed to estimate the concentrations required to double the clotting time for each assay.

Human plasma [2] = test: Human plasma anticoagulation, activated partial thromboplastin time (APTT); details: concentration required to double the APTT, linear extrapolation
Description: as §1, §2

Human plasma [3] = test: Human plasma anticoagulation, prothrombin time (PT); details: concentration required to double the PT, linear extrapolation
Description: as §1, §2

SMILES	Human Plasma Anticoagulation 2× Clotting time (ng/mL) TT (Human plasma [1])	Human Plasma Anticoagulation 2× Clotting time (ng/mL) APTT (Human plasma [2])	Human Plasma Anticoagulation 2× Clotting time (ng/mL) PT (Human plasma [3])
Cl.Cl.N=C(N)c1ccc(CNC(=O)[C@@H]2CCCN2C(=O)[C@H](N)CC2CCCCC2)cc1 [Example 51, D-Cha-Pro-p-NHCH2 C6 H4 C(NH)NH2.2HCl]	2 ng/mL	48 ng/mL	110 ng/mL
Cl.N=C(N)c1ccc(CNC(=O)[C@@H]2CCCN2C(=O)[C@@H](CC2CCCCC2)NCCC(=O)O)cc1 [Example 52, HOOCCH2 CH2 -D-Cha-Pro-p-NHCH2 C6 H4 C(NH)NH2.HCl]	6 ng/mL	80 ng/mL	170 ng/mL
O=C(O)CN[C@H](CC1CCCCC1)C(=O)N1CCC[C@H]1C(=O)NCC1CCNCC1 [Example 53, HO2 CCH2 -D-Cha-Pro-4-NHCH2 -piperidine.HCl]	1,400 ng/mL	33,800 ng/mL	34,500 ng/mL
Cl.O=C(O)CNC(CC1CCCCC1)C(=O)N1CCCC1C(=O)NCCC1CCNCC1 [Example 54, HO2 CCH2 -D-Cha-Pro-4-NHCH2 CH2 -piperidine.HCl]	140 ng/mL	3,300 ng/mL	2,200 ng/mL
O=C(O)CN[C@H](CC1CCCCC1)C(=O)N1CCC[C@H]1C(=O)NCCCC1CCNCC1 [Example 55, HO2 CCH2 -D-Cha-Pro-4-NHCH2 CH2 CH2 -piperidine.HCl]	55,800 ng/mL	> 91,000 ng/mL	> 91,000 ng/mL
Cl.N=C(N)N1CCC(CNC(=O)[C@@H]2CCCN2C(=O)[C@@H](CC2CCCCC2)NCC(=O)O)CC1 [Example 56, HO2 CCH2 -D-Cha-Pro-4-NHCH2 -1-amidinopiperidine.HCl]	5 ng/mL	160 ng/mL	200 ng/mL
N=C(N)N1CCC(CCNC(=O)[C@@H]2CCCN2C(=O)[C@@H](CC2CCCCC2)NCC(=O)O)CC1 [Example 57, HO2 CCH2 -D-Cha-Pro-4-NHCH2 CH2 -1-amidinopiperidine.HCl]	14 ng/mL	360 ng/mL	340 ng/mL
Cl.O=C(O)CN[C@H](CC1CCCCC1)C(=O)N1CCC[C@H]1C(=O)NCC1=CCNCC1 [Example 58, HO2 CCH2 -D-Cha-Pro-4-NHCH2 -3,4-dehydropiperidine.HCl]	710 ng/mL	14,300 ng/mL	11,400 ng/mL
Cl.O=C(O)CN[C@H](CC1CCCCC1)C(=O)N1CCC[C@H]1C(=O)NCCC1=CCNCC1 [Example 59, HO2 CCH2 -D-Cha-Pro-4-NHCH2 CH2 -3,4-dehydropiperidine.HCl]	420 ng/mL	5,500 ng/mL	7,000 ng/mL
Cl.O=C(O)CN[C@H](CC1CCCCC1)C(=O)N1CCC[C@H]1C(=O)NCCCC1=CCNCC1 [Example 60, HO2 CCH2 -D-Cha-Pro-4-NHCH2 CH2 CH2 -3,4-dehydropiperidine.HCl]	3,200 ng/mL	22,200 ng/mL	77,700 ng/mL
N=C(N)c1ccc(CNC(=O)[C@@H]2CCCN2C(=O)[C@@H](CC2CCCCC2)NCC(=O)O)nc1 [Example 66, HO2 CCH2 -D-Cha-Pro-2-NHCH2 -5-amidinopyridine.HCl]	7.9 ng/mL	180 ng/mL	270 ng/mL
N=C(N)C1CCC(CNC(=O)[C@@H]2CCCN2C(=O)[C@@H](CC2CCCCC2)NCC(=O)O)NC1 (stereo partly drawn) [Example 67, HO2 CCH2 -D-Cha-Pro-2-NHCH2 -5-amidinopiperidine.HCl]	34. ng/mL	1,800 ng/mL	1,300 ng/mL
Cl.N=C(N)C1=CNC(CNC(=O)[C@@H]2CCCN2C(=O)[C@@H](CC2CCCCC2)NCC(=O)O)CC1 (stereo partly drawn) [Example 68, HO2 CCH2 -D-Cha-Pro-2-NHCH2 -5-amidino-5,6-dehydro-piperidine.HCl]	4. ng/mL	49 ng/mL	190 ng/mL
Cl.N=C(N)c1ccc(CNC(=O)[C@@H]2CCCN2C(=O)[C@@H](CC2CCCCC2)NCC(=O)O)nn1 [Example 69, HO2 CCH2 -D-Cha-Pro-3-NHCH2 -6-amidinopyridazine.HCl]	5. ng/mL	110 ng/mL	220 ng/mL
Cl.N=C(N)N1CC=C(CNC(=O)[C@@H]2CCCN2C(=O)[C@@H](CC2CCCCC2)NCC(=O)O)CC1 [Example 70, HO2 CCH2 -D-Cha-Pro-4-NHCH2 -1-amidino-3,4-dehydro-piperidine.HCl]	2 ng/mL	160 ng/mL	180 ng/mL
Cl.N=C(N)c1ccc(CNC(=O)[C@@H]2CCCN2C(=O)[C@@H](CC2CCCCC2)NCC(=O)O)c(F)c1 [Example 71, HO2 CCH2 -D-Cha-Pro-4-NHCH2 -3-F-benzamidine.HCl]	1 ng/mL	89 ng/mL	150 ng/mL
Cl.N=C(N)c1cc(F)c(CNC(=O)[C@@H]2CCCN2C(=O)[C@@H](CC2CCCCC2)NCC(=O)O)c(F)c1 [Example 72, HO2 CCH2 -D-Cha-Pro-4-NHCH2 -3,5-F2 -benzamidine.HCl]	1 ng/mL	160 ng/mL	160 ng/mL
Cl.Nc1cc(CNC(=O)[C@@H]2CCCN2C(=O)[C@@H](CC2CCCCC2)NCC(=O)O)ccn1 [Example 73, HO2 CCH2 -D-Cha-Pro-4-NHCH2 -2-aminopyridine.HCl]	21 ng/mL	340 ng/mL	330 ng/mL
Cl.Nc1ccc(CNC(=O)[C@@H]2CCCN2C(=O)[C@@H](CC2CCCCC2)NCC(=O)O)cn1 [Example 74, HO2 CCH2 -D-Cha-Pro-5-NHCH2 -2-aminopyridine.HCl]	20 ng/mL	420 ng/mL	350 ng/mL
Cl.Nc1cc(CCNC(=O)[C@@H]2CCCN2C(=O)[C@@H](CC2CCCCC2)NCC(=O)O)ccn1 [Example 76, HO2 CCH2 -D-Cha-Pro-4-NHCH2 CH2 -2-aminopyridine.HCl]	29 ng/mL	490 ng/mL	560 ng/mL
Nc1ccc(CNC(=O)[C@@H]2CCCN2C(=O)[C@@H](CC2CCCCC2)NCC(=O)O)cc1F [Example 77, HO2 CCH2 -D-Cha-Pro-4-NHCH2 -2-F-aniline.HCl]	53 ng/mL	1,600 ng/mL	890 ng/mL
NCc1ccc(CNC(=O)[C@@H]2CCCN2C(=O)[C@@H](CC2CCCCC2)NCC(=O)O)cc1 [Example 78, HO2 CCH2 -D-Cha-Pro-4-NHCH2 C6 H4 CH2 NH2.HCl]	46 ng/mL	430 ng/mL	760 ng/mL
NCC1CCC(CNC(=O)[C@@H]2CCCN2C(=O)[C@@H](CC2CCCCC2)NCC(=O)O)CC1 (stereo partly drawn) [Example 79, HO2 CCH2 -D-Cha-Pro-4-NHCH2 C6 H10 CH2 NH2.HCl]	140 ng/mL	1,700 ng/mL	2,400 ng/mL
CCS(=O)(=O)N[C@H](CC1CCCCC1)C(=O)N1CCC[C@H]1C(=O)NCc1ccc(C(=N)N)cc1.Cl [Example 80, EtSO2 -D-Cha-Pro-4-NHCH2 C6 H4 C(NH)NH2.HCl]	4 ng/mL	40 ng/mL	130 ng/mL
CCS(=O)(=O)N[C@H](CC1CCCCC1)C(=O)N1CCC[C@H]1C(=O)NCc1ccc(CN)cc1 [Example 81, EtSO2 -D-Cha-Pro-4-NHCH2 C6 H4 CH2 NH2.HCl]	110 ng/mL	1,500 ng/mL	2,700 ng/mL
